According to PubChem BioAssay (NCI):
Several values for one entry are separate records, joined by “and”; a condition that tells them apart may be missing. Identical values can stand only once.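 Where inhibition never reached the appropriate level, the endpoint shown equals the highest concentration tested. Otherwise, values were interpolated linearly from a five-concentration, 48-hour dose response in 96-well plates. GI50 = concentration required for 50% inhibition of growth. TGI denotes the concentration required for complete inhibition of growth.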

How the values were obtained:
Assay in all cases: NCI tumour cell line growth inhibition, 48 h
DMS 273 small cell lung = system: DMS 273 small cell lung
HT29 colon = system: HT29 colon
M19-MEL melanoma = system: M19-MEL melanoma
SNB-19 CNS = system: SNB-19 CNS
NCI-H522 lung = system: NCI-H522 lung
UACC-62 melanoma = system: UACC-62 melanoma
HOP-18 NSCLC = system: HOP-18 NSCLC
HCT-116 colon = system: HCT-116 colon
XF 498 CNS = system: XF 498 CNS
U251 CNS = system: U251 CNS
UACC-257 melanoma = system: UACC-257 melanoma
NCI-H460 lung = system: NCI-H460 lung
A498 renal = system: A498 renal
SK-OV-3 ovarian = system: SK-OV-3 ovarian
SW-620 colon = system: SW-620 colon
SN12K1 renal = system: SN12K1 renal
SK-MEL-2 melanoma = system: SK-MEL-2 melanoma
NCI-H226 lung = system: NCI-H226 lung
RXF 393 renal = system: RXF 393 renal
SF-268 CNS = system: SF-268 CNS
IGROV1 ovarian = system: IGROV1 ovarian
RPMI-8226 leukemia = system: RPMI-8226 leukemia
HCC-2998 colon = system: HCC-2998 colon
P388/ADR leukemia = system: P388/ADR leukemia
NCI-H23 lung = system: NCI-H23 lung
SNB-75 CNS = system: SNB-75 CNS
K-562 leukemia = system: K-562 leukemia
DLD-1 colon = system: DLD-1 colon
OVCAR-8 ovarian = system: OVCAR-8 ovarian
OVCAR-3 ovarian = system: OVCAR-3 ovarian
SK-MEL-28 melanoma = system: SK-MEL-28 melanoma
LOX IMVI melanoma = system: LOX IMVI melanoma
P388 leukemia = system: P388 leukemia
A549 NSCLC = system: A549 NSCLC
SNB-78 CNS = system: SNB-78 CNS
MALME-3M melanoma = system: MALME-3M melanoma
OVCAR-5 ovarian = system: OVCAR-5 ovarian
HOP-92 NSCLC = system: HOP-92 NSCLC
CCRF-CEM leukemia = system: CCRF-CEM leukemia
HOP-62 NSCLC = system: HOP-62 NSCLC
MOLT-4 leukemia = system: MOLT-4 leukemia
COLO 205 colon = system: COLO 205 colon
KM20L2 colon = system: KM20L2 colon
SF-539 CNS = system: SF-539 CNS
MCF7 breast = system: MCF7 breast
OVCAR-4 ovarian = system: OVCAR-4 ovarian
EKVX NSCLC = system: EKVX NSCLC
SN12C renal = system: SN12C renal
HL-60(TB) leukemia = system: HL-60(TB) leukemia
DMS 114 small cell lung = system: DMS 114 small cell lung
NCI/ADR-RES ovarian = system: NCI/ADR-RES ovarian
UO-31 renal = system: UO-31 renal
SF-295 CNS = system: SF-295 CNS
KM12 colon = system: KM12 colon
HCT-15 colon = system: HCT-15 colon
SK-MEL-5 melanoma = system: SK-MEL-5 melanoma
MDA-N = system: MDA-N
HS 578T breast = system: HS 578T breast
TK-10 renal = system: TK-10 renal
T-47D breast = system: T-47D breast
CAKI-1 renal = system: CAKI-1 renal
MDA-MB-435 = system: MDA-MB-435
ACHN renal = system: ACHN renal
LXFL 529 NSCLC = system: LXFL 529 NSCLC
SR leukemia = system: SR leukemia
DU-145 prostate = system: DU-145 prostate
M14 melanoma = system: M14 melanoma
MDA-MB-231 breast = system: MDA-MB-231 breast
786-0 renal = system: 786-0 renal
RXF-631 renal = system: RXF-631 renal
BT-549 breast = system: BT-549 breast

O=C1OC2CC=CC1C2 (configuration not stated)
TGI (DMS 273 small cell lung): > 100000 nM | TGI (HT29 colon): > 100000 nM | TGI (M19-MEL melanoma): > 100000 nM | TGI (SNB-19 CNS): > 100000 nM | TGI (NCI-H522 lung): > 100000 nM | TGI (UACC-62 melanoma): > 100000 nM | TGI (HOP-18 NSCLC): > 100000 nM | TGI (HCT-116 colon): > 100000 nM | TGI (XF 498 CNS): > 100000 nM | TGI (U251 CNS): > 100000 nM | TGI (UACC-257 melanoma): > 100000 nM | TGI (NCI-H460 lung): > 100000 nM | TGI (A498 renal): > 100000 nM | TGI (SK-OV-3 ovarian): > 100000 nM | TGI (SW-620 colon): > 100000 nM | TGI (SN12K1 renal): > 100000 nM | TGI (SK-MEL-2 melanoma): > 100000 nM | TGI (NCI-H226 lung): > 100000 nM | TGI (RXF 393 renal): > 100000 nM | TGI (SF-268 CNS): > 100000 nM | TGI (IGROV1 ovarian): > 100000 nM | TGI (RPMI-8226 leukemia): > 100000 nM | TGI (HCC-2998 colon): > 100000 nM | TGI (P388/ADR leukemia): > 100000 nM | TGI (NCI-H23 lung): > 100000 nM | TGI (SNB-75 CNS): > 100000 nM | TGI (K-562 leukemia): > 100000 nM | TGI (DLD-1 colon): > 100000 nM | TGI (OVCAR-8 ovarian): > 100000 nM | TGI (OVCAR-3 ovarian): > 100000 nM | TGI (SK-MEL-28 melanoma): > 100000 nM | TGI (LOX IMVI melanoma): > 100000 nM | TGI (P388 leukemia): > 100000 nM | TGI (A549 NSCLC): > 100000 nM | TGI (SNB-78 CNS): > 100000 nM | TGI (MALME-3M melanoma): > 100000 nM | TGI (OVCAR-5 ovarian): > 100000 nM | TGI (HOP-92 NSCLC): > 100000 nM | TGI (CCRF-CEM leukemia): > 100000 nM | TGI (HOP-62 NSCLC): > 100000 nM | TGI (MOLT-4 leukemia): > 100000 nM | TGI (COLO 205 colon): > 100000 nM | TGI (KM20L2 colon): > 100000 nM | TGI (SF-539 CNS): > 100000 nM | TGI (MCF7 breast): > 100000 nM | TGI (OVCAR-4 ovarian): > 100000 nM | TGI (EKVX NSCLC): > 100000 nM | TGI (SN12C renal): > 100000 nM | TGI (HL-60(TB) leukemia): > 100000 nM | TGI (DMS 114 small cell lung): > 100000 nM | TGI (NCI/ADR-RES ovarian): > 100000 nM | TGI (UO-31 renal): > 100000 nM | TGI (SF-295 CNS): > 100000 nM | TGI (KM12 colon): > 100000 nM | TGI (HCT-15 colon): > 100000 nM | TGI (SK-MEL-5 melanoma): > 100000 nM

Cc1cc2c(c3oc(C4(C)OC4C4OC4C)cc(=O)c13)C(=O)c1c(O)c(C3CC(C)(N(C)C)C(O)C(C)O3)cc(C3CC(N(C)C)C(O)C(C)O3)c1C2=O (configuration not stated)
TGI (DMS 273 small cell lung): 0.406 nM and 2.52 nM | TGI (MDA-N): 0.228 nM | GI50 (HT29 colon): 2.5 nM | TGI (HT29 colon): 42.7 nM and 131 nM and 33.7 nM | TGI (SNB-19 CNS): 71.3 nM and 8.63 nM and 15.8 nM | TGI (UACC-62 melanoma): 0.16 nM and 0.228 nM | TGI (HOP-18 NSCLC): 3.34 nM | GI50 (HS 578T breast): 1.58 nM | TGI (HS 578T breast): 4.05 nM and 1.87 nM | GI50 (XF 498 CNS): 0.187 nM | TGI (XF 498 CNS): 0.68 nM | GI50 (TK-10 renal): 0.27 nM | TGI (TK-10 renal): 11.6 nM and 50.1 nM | GI50 (T-47D breast): 0.251 nM | TGI (UACC-257 melanoma): 3.12 nM and 0.772 nM | GI50 (NCI-H460 lung): < 0.01 nM | GI50 (CAKI-1 renal): 0.145 nM | GI50 (A498 renal): 0.57 nM | TGI (A498 renal): 1.14 nM | GI50 (SK-OV-3 ovarian): 2.38 nM | GI50 (SW-620 colon): 0.0489 nM and 0.111 nM | TGI (NCI-H226 lung): 0.537 nM and 0.944 nM | GI50 (RXF 393 renal): < 0.01 nM | TGI (RXF 393 renal): 0.0797 nM and 0.406 nM | GI50 (MDA-MB-435): 0.285 nM | TGI (MDA-MB-435): 0.256 nM and 1.29 nM | TGI (ACHN renal): 0.0808 nM and 0.153 nM | TGI (RPMI-8226 leukemia): 14.2 nM and 55.7 nM and 7.25 nM | TGI (HCC-2998 colon): 0.891 nM | GI50 (K-562 leukemia): 0.0838 nM and 0.124 nM | TGI (K-562 leukemia): 14.7 nM and 19.2 nM and 34.8 nM | GI50 (DLD-1 colon): 0.17 nM | TGI (LXFL 529 NSCLC): 11.7 nM | GI50 (OVCAR-8 ovarian): 0.731 nM and 0.103 nM | TGI (SK-MEL-28 melanoma): 2.77 nM and 0.596 nM | GI50 (LOX IMVI melanoma): 0.175 nM | TGI (LOX IMVI melanoma): 1.89 nM and 0.224 nM | TGI (SR leukemia): 4.95 nM and 10.2 nM | TGI (A549 NSCLC): 3.51 nM and 14.2 nM and 17.7 nM | GI50 (SNB-78 CNS): 0.187 nM | TGI (DU-145 prostate): 0.138 nM and 0.556 nM | TGI (OVCAR-5 ovarian): 0.244 nM and 1.11 nM | GI50 (HOP-92 NSCLC): 0.258 nM | GI50 (CCRF-CEM leukemia): 0.13 nM | TGI (CCRF-CEM leukemia): 49.9 nM and 41 nM | GI50 (M14 melanoma): 0.101 nM | TGI (M14 melanoma): 0.196 nM and 0.148 nM | GI50 (MOLT-4 leukemia): 0.0944 nM and 0.106 nM | GI50 (SF-539 CNS): 0.117 nM | TGI (MDA-MB-231 breast): 0.547 nM and 1.61 nM | GI50 (786-0 renal): 0.463 nM | TGI (EKVX NSCLC): 0.78 nM and 0.929 nM | GI50 (UO-31 renal): 6.38 nM | TGI (UO-31 renal): 14.3 nM and 2.25 nM | TGI (RXF-631 renal): 123 nM | TGI (SF-295 CNS): 0.154 nM and 1.2 nM | GI50 (BT-549 breast): 0.234 nM | TGI (BT-549 breast): 0.414 nM and 2.22 nM | GI50 (KM12 colon): 0.894 nM and 0.134 nM | TGI (KM12 colon): 41.9 nM and 4.86 nM | TGI (SK-MEL-5 melanoma): 1.4 nM and 0.447 nM
